Measured values: patent EP0915086A1, “PHENYLSULFONAMIDE DERIVATIVES” (ONO PHARMACEUTICAL CO., LTD., priority 1996, dated 1997)
pIC50: −log10 of the molar value. Where a name gives a salt, the structure may show the parent alone.

These compounds were tested against T1, collagenase (Homo sapiens, UniProt P03956) (assay: Inhibitory activity against collagenase). Conditions: procollagenase from human normal dermal fibroblasts (HNDF), activated with trypsin; substrate Ac-Pro-Leu-Gly-[2-mercapto-4-methyl-pentanoyl]-Leu-Gly-OEt; 26 °C, 10 minutes; absorption at 324 nm.
T1 construct: endogenous in cells; host or cells: human normal dermal fibroblasts (HNDF)
T1 sequence (P03956 100-469): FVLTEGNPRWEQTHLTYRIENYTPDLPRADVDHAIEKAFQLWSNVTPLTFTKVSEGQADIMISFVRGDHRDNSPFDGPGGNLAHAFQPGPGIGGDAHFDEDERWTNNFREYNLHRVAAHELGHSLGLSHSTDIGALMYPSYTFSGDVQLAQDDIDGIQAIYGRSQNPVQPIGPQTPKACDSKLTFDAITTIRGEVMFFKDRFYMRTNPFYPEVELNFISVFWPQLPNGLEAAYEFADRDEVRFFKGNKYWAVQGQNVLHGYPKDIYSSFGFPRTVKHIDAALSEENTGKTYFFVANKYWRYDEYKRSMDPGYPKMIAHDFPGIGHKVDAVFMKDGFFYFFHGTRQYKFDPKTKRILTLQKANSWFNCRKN
Type: biochemical
Method: Trypsin (45 µl; 1 mg/ml) was added to a solution of procollagenase (5 µM) purified from human normal dermal fibloblasts (HNDF) in assay buffer (105 µl). The solution was preincubated in order to activate the enzyme at 37°C for 1 minute.
Trypsin was inactivated by addition of soybean trypsin inhibitor (SBTI; 50 µl). Solutions (20 µl) of synthetic substrate (Ac-Pro-Leu-Gly-[2-mercapto-4-methyl-pentanoyl]-Leu-Gly-OEt) (105 µl; the final concentration […]) with or without various concentrations of the test compound were preincubated for 5 minutes at 26 °C.
To the solutions, activated enzyme (75 µl/tube, 50 µl) prepared above was added. The mixtures were incubated at 26 °C for 10 minutes.
Absorption at 324 nm was measured at 40 points during the 10 minutes.
Vmax value was determined as measured value in 30 points therein.
Work on C#Cc1ccc(S(=O)(=O)N[C@H](CCC(=O)NCCc2ccccc2)C(=O)NO)cc1 [Example 6(17), N-Hydroxy-[N-(4-ethynyl)phenylsulfonyl-N'-(2-phenylethyl)-D-glutaminyl]amide] yielded a pIC50 of 7.20.
C#Cc1ccc(S(=O)(=O)N[C@H](CCC(=O)NC(Cc2ccccc2)c2ccccc2)C(=O)NO)cc1 (stereo partly drawn) [Example 6(19), N-Hydroxy-[N-(4-ethynyl)phenylsulfonyl-N'-(1,2-diphenylethyl)-D-glutaminyl]amide] was tested, and the pIC50 was 7.19.
CC#Cc1ccc(S(=O)(=O)N(C)[C@H](C)C(=O)NO)cc1 [Example 10(13), N-Hydroxy-[N-methyl-N-[4-(1-propynyl)phenylsulfonyl]-D-alanyl]amide] gave a pIC50 of 6.54.

These compounds were tested against T2, gelatinase A (Homo sapiens, UniProt P08253) (assay: Inhibitory activity against gelatinase A). Conditions: progelatinase A from human normal skin dermal fibroblasts (HNDF), activated with APMA; substrate MOCAc-Pro-Leu-Gly-A2pr(Dnp)-Ala-Arg-NH2; 37 °C, 20 minutes; fluorescence Ex 328 nm, Em 393 nm.
T2 construct: endogenous in cells; host or cells: human normal skin dermal fibroblasts (HNDF)
T2 sequence (P08253 110-660): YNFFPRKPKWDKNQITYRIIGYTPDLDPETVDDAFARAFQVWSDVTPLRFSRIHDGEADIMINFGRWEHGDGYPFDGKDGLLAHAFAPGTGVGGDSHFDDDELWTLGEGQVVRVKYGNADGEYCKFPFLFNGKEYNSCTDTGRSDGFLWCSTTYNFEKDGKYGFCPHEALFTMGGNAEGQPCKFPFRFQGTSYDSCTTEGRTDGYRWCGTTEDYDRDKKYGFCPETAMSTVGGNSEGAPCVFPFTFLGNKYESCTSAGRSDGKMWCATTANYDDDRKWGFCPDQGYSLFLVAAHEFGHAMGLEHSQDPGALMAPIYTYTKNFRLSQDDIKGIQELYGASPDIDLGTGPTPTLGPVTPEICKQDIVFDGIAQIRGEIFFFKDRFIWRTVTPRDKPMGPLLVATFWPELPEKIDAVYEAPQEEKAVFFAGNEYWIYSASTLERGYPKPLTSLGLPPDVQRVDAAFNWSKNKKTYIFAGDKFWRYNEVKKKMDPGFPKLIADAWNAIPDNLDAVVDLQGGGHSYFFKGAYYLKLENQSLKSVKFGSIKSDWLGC
Type: biochemical
Method: Progelatinase A (7 µl; in assay buffer (90 µl)) was purified from human normal skin dermal fibroblasts (HNDF). It was activated by addition of 10 mM p-aminophenyl mercuric acetate (APMA) (10 µl) and preincubation at 37 °C for 1 hour. The solution (890 µl; the final concentration was […]) of the synthetic substrates (MOCAc-Pro-Leu-Gly-A2pr(Dnp)-Ala-Arg-NH2) was mixed with various concentrations of the test compound or a solution without it (10 µl) and the mixture was preincubated at 37 °C for 5 minutes. The activated gelaninase A prepared above (7 µl/tube, 100 µl) was added to the reaction mixture and further incubated at 37 °C for 20 minutes. The enzyme reaction was terminated by addition of 0.1 M sodium acetate buffer (2ml; pH 4.0).
The IC50 value was determined by measuring the fluorescent intensity (Ex = 328 nm, and Em = 393 nm) in this solution.
Cc1ccc(C#Cc2ccc(S(=O)(=O)N(C)[C@H](C)C(=O)NO)cc2)cc1 [Example 10, N-Hydroxy-[N-methyl-N-[4-[2-(4-methylphenyl)ethynyl]phenylsulfonyl]-D-alanyl]amide] was tested, and the pIC50 was 8.12.
Cc1ccc(/C=C/c2ccc(S(=O)(=O)N[C@H](C)C(=O)NO)cc2)cc1 [Example 6(2), N-Hydroxy-[N-[4-[2-(4-methylphenyl)ethenyl]phenylsulfonyl]-D-alanyl]amide] was tested, and the pIC50 was 9.70.
Cc1ccc(C#Cc2ccc(S(=O)(=O)N[C@H](C)C(=O)O)cc2)cc1 [Example 2(1), N-[4-[2-(4-Methylphenyl)ethynyl]phenylsulfonyl]-D-alanine] showed a pIC50 of 7.89.
For C#Cc1ccc(S(=O)(=O)N[C@H](CCC(=O)NCCc2ccccc2)C(=O)NO)cc1 [Example 6(17), N-Hydroxy-[N-(4-ethynyl)phenylsulfonyl-N'-(2-phenylethyl)-D-glutaminyl]amide], the pIC50 was 9.10.
Cc1ccc(C=Cc2ccc(S(=O)(=O)N[C@H](C)C(=O)O)cc2)cc1 (stereo in doubt) [Example 3(1), N-[4-[2-(4-Methylphenyl)ethenyl]phenylsulfonyl]-D-alanine] was tested, and the pIC50 was 8.21.
CN(CCc1ccccc1)C(=O)CC[C@@H](NS(=O)(=O)c1ccc(C#Cc2ccc(-n3ccnc3)cc2)cc1)C(=O)O [Example 2(27), N-[4-[2-(4-Imidazolylphenyl)ethynyl]phenylsulfonyl]-N'-methyl-N'-(2-phenylethyl)-D-glutamine] gave a pIC50 of 8.48.
For O=C(O)[C@@H](Cc1c[nH]c2ccccc12)NS(=O)(=O)c1ccc(C#Cc2ccc(-n3ccnc3)cc2)cc1 [Example 2(18), N-[4-[2-(4-Imidazolylphenyl)ethynyl]phenylsulfonyl]-D-tryptophan], the pIC50 was 7.96.
Cc1ccc(C#Cc2ccc(S(=O)(=O)N[C@H](Cc3c[nH]c4ccccc34)C(=O)O)cc2)cc1 [Example 2(4), N-[4-[2-(4-Methylphenyl)ethynyl]phenylsulfonyl]-D-tryptophan] showed a pIC50 of 8.19.
Compound CCCCCC#Cc1ccc(S(=O)(=O)N[C@H](C)C(=O)NO)cc1 [Example 6(11), N-Hydroxy-[N-[4-[4-(1-heptynyl)]phenylsulfonyl]-D-alanyl]amide] has a pIC50 of 8.62.
For CCCC#Cc1ccc(S(=O)(=O)N(C)[C@H](C)C(=O)NO)cc1 [Example 10(4)], the pIC50 was 9.15.
In the case of C[C@H](C(=O)NO)N(C)S(=O)(=O)c1ccc(C#Cc2ccc(-n3ccnc3)cc2)cc1 [Example 10(3), N-Hydroxy-[N-methyl-N-[4-[2-[4-(1-imidazolyl)phenyl]ethynyl]phenylsulfonyl]-D-alanyl]amide hydrochloride], the pIC50 was 9.40.
Cc1ccc(C#Cc2ccc(S(=O)(=O)N[C@H](C)C(=O)NO)cc2)cc1 [Example 6(4), N-Hydroxy-[N-[4-[2-(4-methylphenyl)ethynyl]phenylsulfonyl]-D-alanyl]amide] was tested, and the pIC50 was 9.15.
CCCC#Cc1ccc(S(=O)(=O)N[C@H](C)C(=O)NO)cc1 [Example 6(1), N-Hydroxy-[N-[4-(1-pentynyl)phenylsulfonyl]-D-alanyl]amide] showed a pIC50 of 8.92.
